ChEMBL document CHEMBL1201862, “PubChem BioAssay data set” (2004)
Active and inactive are the calls of the source.

Experiments:
[1] = inhibitors of firefly luciferase expression or activity, dose response, H4 neuroglioma cells, luminescence (AID 1990); assay type: functional, cell-based
BJ [2] = experiment: cytotoxicity toward BJ-TERT fibroblasts, dose response, cell-based, RAS-independent, luminescence (AID 1933); assay type: functional; conditions: Homo sapiens
[3] = Luminescence Cell-Based Dose Response HTS to Identify Inhibitors of 5'UTR Stem-Loop Driven Prion Protein mRNA Translation in H4 Neuroglioblastoma Cells. [Related pubchem assays: 1827 (Project Summary), 1813 (Primary HTS)]; assay type: functional
[4] = inhibitors of SNCA 5'UTR-driven reporter translation, confirmation, H4 neuroglioma cells, luminescence (AID 1988); assay type: functional, cell-based
BJ [5] = experiment: cells; assay type: functional, cell-based; conditions: Homo sapiens
BJ [6] = experiment: cytotoxicity toward BJ-TERT-LT-ST fibroblasts, dose response, cell-based, RAS-independent, luminescence (AID 1935); assay type: functional; conditions: Homo sapiens;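 note: BJ fibroblasts immortalized with TERT plus LT and ST oncogenes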
[7] = cytotoxicity toward DRD oncogenic fibroblasts, dose response, cell-based, non-viral oncogenic, luminescence (AID 1934); assay type: functional; conditions: Homo sapiens
BJ [8] = experiment: cytotoxicity toward Ras-transformed BJeLR fibroblasts, dose response, cell-based, alamar blue fluorescence, cherrypicked samples (AID 2631); assay type: functional; conditions: Homo sapiens;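 note: confirmatory dose-response assay in RAS-dependent BJ fibroblasts engineered with TERT, LT and ST, with cytotoxicity read by fluorescence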
HEK293 = experiment: cytotoxicity in HEK293T NF-kB-Luc cells, SAR follow-up, cytotoxicity control for NF-kB activator project, cell-based, resazurin fluorescence (AID 493251); assay type: functional; conditions: Homo sapiens
[9] = molecular target: Cell division cycle 7-related protein kinase (Homo sapiens, UniProt O00311); assay type: functional;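 note: value obtained from a kinome-wide kinase panel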
[10] = molecular target: Cyclin-dependent kinase 7 (Homo sapiens, UniProt P50613); assay type: functional;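 note: value comes from a kinome-wide kinase profiling panel in which CDK7 is one member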
[11] = molecular target: Cyclin-dependent kinase 9 (Homo sapiens, UniProt P50750); assay type: functional;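 note: value from the CDK9 entry of a kinome-spanning kinase panel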
[12] = THP-1 cell cytotoxicity, cytotoxicity control, set 4 (AID 504911); assay type: functional; conditions: Mycobacterium tuberculosis
[13] = molecular target: Glucose-6-phosphate 1-dehydrogenase (Homo sapiens, UniProt P11413); experiment: human G6PD enzyme inhibitors, dose response, selectivity assay for P. falciparum G6PD inhibitor project, biochemical, fluorescence (AID 504792); assay type: functional
[14] = molecular target: T1, Sentrin-specific protease 8 (Homo sapiens, UniProt Q96LD8); assay type: functional
T1 sequence (Q96LD8 whole entry): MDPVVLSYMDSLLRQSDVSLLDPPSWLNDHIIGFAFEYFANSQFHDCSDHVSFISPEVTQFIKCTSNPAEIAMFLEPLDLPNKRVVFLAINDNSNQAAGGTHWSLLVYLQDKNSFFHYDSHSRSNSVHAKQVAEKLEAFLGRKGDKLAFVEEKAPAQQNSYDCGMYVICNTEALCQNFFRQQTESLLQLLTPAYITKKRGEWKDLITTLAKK

[15] = molecular target: T1, Sentrin-specific protease 8; assay type: functional; remark: listed apart in the source

Sequence of Cell division cycle 7-related protein kinase (O00311 whole entry): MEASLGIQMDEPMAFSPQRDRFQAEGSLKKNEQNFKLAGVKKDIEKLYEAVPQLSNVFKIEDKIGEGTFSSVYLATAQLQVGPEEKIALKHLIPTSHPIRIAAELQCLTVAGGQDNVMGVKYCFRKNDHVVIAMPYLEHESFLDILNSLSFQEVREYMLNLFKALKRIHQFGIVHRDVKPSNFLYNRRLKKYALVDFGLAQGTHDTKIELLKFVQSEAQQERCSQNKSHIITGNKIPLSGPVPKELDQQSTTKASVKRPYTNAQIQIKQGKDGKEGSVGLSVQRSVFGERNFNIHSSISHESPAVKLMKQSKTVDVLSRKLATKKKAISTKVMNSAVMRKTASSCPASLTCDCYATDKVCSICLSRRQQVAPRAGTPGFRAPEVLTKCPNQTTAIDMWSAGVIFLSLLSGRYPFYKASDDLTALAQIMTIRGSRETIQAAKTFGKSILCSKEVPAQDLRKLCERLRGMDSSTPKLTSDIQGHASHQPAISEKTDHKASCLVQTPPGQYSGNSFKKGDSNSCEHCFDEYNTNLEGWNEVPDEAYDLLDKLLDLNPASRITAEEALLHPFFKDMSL
Sequence of Cyclin-dependent kinase 7 (P50613 whole entry): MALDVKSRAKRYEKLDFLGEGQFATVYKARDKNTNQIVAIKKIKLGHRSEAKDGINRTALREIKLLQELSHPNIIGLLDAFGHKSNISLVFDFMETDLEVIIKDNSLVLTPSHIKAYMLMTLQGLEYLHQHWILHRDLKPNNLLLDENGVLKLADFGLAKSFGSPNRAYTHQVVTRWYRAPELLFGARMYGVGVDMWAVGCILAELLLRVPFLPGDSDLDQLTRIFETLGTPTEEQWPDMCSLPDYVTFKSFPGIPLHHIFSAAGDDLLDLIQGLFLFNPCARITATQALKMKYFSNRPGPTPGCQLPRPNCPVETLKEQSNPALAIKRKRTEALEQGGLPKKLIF
Sequence of Glucose-6-phosphate 1-dehydrogenase (P11413 whole entry): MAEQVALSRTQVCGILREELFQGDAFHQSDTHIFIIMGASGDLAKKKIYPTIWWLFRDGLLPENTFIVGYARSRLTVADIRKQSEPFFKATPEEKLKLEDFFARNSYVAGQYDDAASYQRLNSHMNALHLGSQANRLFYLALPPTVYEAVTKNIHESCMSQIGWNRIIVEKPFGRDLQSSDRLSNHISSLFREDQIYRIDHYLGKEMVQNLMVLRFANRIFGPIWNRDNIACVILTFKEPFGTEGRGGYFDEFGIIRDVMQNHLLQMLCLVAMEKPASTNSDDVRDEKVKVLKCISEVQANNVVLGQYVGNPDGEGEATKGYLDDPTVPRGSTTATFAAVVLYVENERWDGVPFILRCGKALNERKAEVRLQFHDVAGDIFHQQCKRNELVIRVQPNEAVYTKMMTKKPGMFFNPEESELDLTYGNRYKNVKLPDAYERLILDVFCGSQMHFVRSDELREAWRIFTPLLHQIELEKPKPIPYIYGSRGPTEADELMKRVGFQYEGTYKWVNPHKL
Sequence of Cyclin-dependent kinase 9 (P50750 whole entry): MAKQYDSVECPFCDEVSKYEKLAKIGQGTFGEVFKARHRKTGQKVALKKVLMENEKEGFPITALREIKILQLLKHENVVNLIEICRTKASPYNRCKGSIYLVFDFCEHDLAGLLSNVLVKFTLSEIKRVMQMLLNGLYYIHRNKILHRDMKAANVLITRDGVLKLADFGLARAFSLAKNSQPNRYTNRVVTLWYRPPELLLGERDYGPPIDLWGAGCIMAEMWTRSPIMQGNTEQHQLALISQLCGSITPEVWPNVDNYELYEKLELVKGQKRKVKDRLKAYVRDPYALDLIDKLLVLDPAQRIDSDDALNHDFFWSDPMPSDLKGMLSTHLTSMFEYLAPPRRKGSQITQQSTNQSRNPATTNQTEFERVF

SMILES | EC50 [1] | EC50 (BJ [2]) | EC50 [3] | EC50 [4] | EC50 (BJ [5]) | EC50 (BJ [6]) | EC50 [7] | EC50 (BJ [8]) | other results
N#CC1=C(N)Oc2cc(N)ccc2C1c1cccc(Br)c1 (centres undefined) | 1830 nM (active) | 1200 nM (active) | 502 nM (active) | 180 nM (active) | 702 nM (active) | 859 nM (inconclusive) | 658 nM (active) | 182 nM (active) | 
COC(=O)CCc1nc(-c2ccc(C(C)(C)C)cc2)no1 |  |  |  |  |  |  |  |  | IC50 (HEK293): > 80000 nM (inactive)
NC(=O)c1ccc(-c2ccncc2)cc1N1CCCC1 |  |  |  |  |  |  |  |  | Ki [9]: 126 nM (active); Ki [10]: > 2510 nM (inactive); Ki [11]: 1000 nM (active)
O=C(CSc1ncccn1)NC1CCCCC1 |  |  |  |  |  |  |  |  | CC50 [12]: > 100000 nM (active)
Cc1ccc(Nc2cc(C)c(O)c(C)c2)cc1 |  |  |  |  |  |  |  |  | IC50 [13]: 40000 nM (inactive); IC50 [14]: 23700 nM (active); IC50 [15]: 13900 nM (active)
Cc1cc2nc(/C=C/c3cccnc3)[nH]c2cc1C | 336 nM (inconclusive) | 553 nM (inconclusive) | 318 nM (active) | 154 nM (active) | 1890 nM (inconclusive) | 15100 nM (inconclusive) | 1420 nM (inconclusive) | < 104 nM (active) | 
